{"source": "paper PMC7618597", "about": "“Dual Nurr1/RXR agonism of valerenic acid and synthetic mimetics enables dimer-selective Nurr1 modulation” (ACS medicinal chemistry letters, 2025)", "molecular_target": "T1, full-length Nurr1 homodimer (NurRE) (Homo sapiens, UniProt P43354)", "T1 construct": "full-length human nuclear receptor Nurr1 encoded by pcDNA3.1 -hNurr1-NE; host or cells: HEK293T", "T1 sequence (P43354 whole entry)": "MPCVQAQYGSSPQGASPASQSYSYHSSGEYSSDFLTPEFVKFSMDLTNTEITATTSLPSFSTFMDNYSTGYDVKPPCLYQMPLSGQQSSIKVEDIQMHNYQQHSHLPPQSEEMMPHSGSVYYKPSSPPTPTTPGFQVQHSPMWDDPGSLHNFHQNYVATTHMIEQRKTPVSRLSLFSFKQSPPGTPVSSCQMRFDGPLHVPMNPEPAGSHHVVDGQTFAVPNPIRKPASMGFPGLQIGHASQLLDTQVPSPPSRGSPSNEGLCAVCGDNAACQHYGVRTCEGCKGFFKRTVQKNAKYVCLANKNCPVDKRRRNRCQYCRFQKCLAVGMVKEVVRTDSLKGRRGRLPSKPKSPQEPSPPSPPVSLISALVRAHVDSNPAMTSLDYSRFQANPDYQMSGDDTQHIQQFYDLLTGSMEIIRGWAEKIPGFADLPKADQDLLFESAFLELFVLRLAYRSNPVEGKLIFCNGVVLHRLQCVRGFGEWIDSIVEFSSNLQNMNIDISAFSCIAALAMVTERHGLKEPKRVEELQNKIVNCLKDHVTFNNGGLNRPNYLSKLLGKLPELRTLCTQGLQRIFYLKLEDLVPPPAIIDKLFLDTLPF", "assay": "Full-length Nurr1 reporter gene assay, homodimer response element NurRE", "format": "cell-based", "protocol": "Based on these findings, we next determined the effects of 2 and 3 on Nurr1 activity in a cellular setting using reporter constructs for the NGFI-B response element (NBRE), the Nur response element (NurRE), and the direct repeat 5 (DR5)[36]. All three response elements are robustly activated by common Nurr1 agonists[4],[31]. […]\nReporter gene assays for full-length human Nurr1 and RXR. Modulation of full-length human Nurr1 (NR4A2) was studied using pRL-SV40 (1.5 ng/well reporter plasmid) and the previously described4 reporter plasmids pFR-Luc-NBRE (100 ng/well reporter plasmid), pFR-Luc-NurRE (50 ng/well reporter plasmid) or pFR-Luc-DR5 (50 ng/well reporter plasmid). […] Five hours after transfection, the cells wer e incubated with the test compounds in Opti-MEM supplemented with penicillin (100 U/mL), streptomycin (100 μg/mL), and 0.1% DMSO for 15 h before luciferase activity was measured using the Dual-Glo Luciferase Assay System (Promega) according to the manufacturer’s protocol on a Tecan Spark luminometer (Tecan Deutschland GmbH, Germany). Firefly luminescence was divided by Renilla luminescence and multiplied by 1000, resulting in relative light units (RLU) to normalize for transfection efficiency and cell growth. […]", "data": [{"smiles": "Cc1c(C)n(-c2ccc(CC(=O)O)cc2)c2ccc(F)cc12", "note": "[compound 3]", "values": [{"measurement": "activation on NurRE", "result": "no activation was detectable"}]}, {"smiles": "Cc1c2c(n(-c3ccc(CC(=O)O)cc3)c1C)CCC(F)(F)C2", "note": "[compound 2]", "values": [{"measurement": "activation on NurRE", "result": "no activation was detectable"}]}]}
